This is an account of results in patent US7297660B2, “Alkylene carbonate adjuvants” (Huntsman Petrochemical Corporation, priority 2001, dated 2007).

Each structure is given as a SMILES string. Like-named read-outs stand apart in the source and are kept apart here.

The nature of data set [1]: Surface tension. The format is physicochemical.
Data set [2] can be described thus: Dipole moment. The format is physicochemical. The conditions noted are these: 40° C.
Data set [3] deals with activated sludge bacteria taken from a wastewater treatment plant. The settings on record: 7 day test at 300 ppm; cited from earlier work.
The nature of data set [4]: Hansen Solubility Parameters of JEFFSOL brand alkylene carbonates.
Data set [5] deals with rabbits. The settings on record: undiluted; cited from earlier work.
The conditions of data set [6]: criteria promulgated by the European Union; cited from earlier work.
Data set [7] deals with mammals. The settings on record: in vivo; cited from earlier work.
Data set [8] relates to Rat Hepatocyte Primary Culture. The conditions noted are these: Rat Hepatocyte Primary Culture/DNA Repair Test; cited from earlier work.
Data set [9] has as its system skin. The settings on record: neat; cited from earlier work.
Data set [10] has as its system guinea pigs. The settings on record: 21-day test; cited from earlier work.
In data set [11] the test system is dogs. The settings on record: 21-day test; cited from earlier work.
For data set [12], the system named is velvetleaf. As to the kind of experiment: Bioefficacy testing with glyphosate, velvetleaf control. In kind it is in vivo. The method, then:
(§1) The adjuvancy of alkylene carbonates with glyphosate was then tested. Bioefficacy testing was conducted on lambsquarters and velvetleaf weeds. The mono-isopropylamine salt of glyphosate was applied to velvetleaf and lambsquarters weeds at 0.25 lb ae/acre, and the adjuvant mixtures were present at 0.1 v/v%. The spray volume was 20 gal/acre, and application was made at 25 psig.
(§2) Evaluations, with the same adjuvant mixtures listed above, were also made with ammonium sulfate (AMS) at 17 lb/100 gallons water carrier. For control purposes, a group of plants was not treated with any glyphosate, and another group of plants was treated with only glyphosate.
(§3) The two alkylene carbonate blends of PC and BC were compared to diethylene glycol (DEG) as a standard solvent in combination with two different nonionic surfactant systems. One surfactant system was a SURFONIC® N-95 alkyl phenol ethoxylate, and the second surfactant system was a SURFONIC® DDA-8 branched alcohol ethoxylate. (SURFONIC® brand ethoxylates are commercially available from Huntsman Petrochemical Corporation, Houston, Tex.).
(§4) The results are expressed in terms of percent control, where 0% represents no plant necrosis, and 100% represents complete plant necrosis.

For data set [13] the following is noted: free acid form; cited from earlier work.
Data set [14] deals with lambsquarters. The data set is described as follows: Bioefficacy testing with glyphosate, lambsquarters control. The format is in vivo. The method, then: as §1, §2, §3, §4
The conditions of data set [15]: cited from earlier work.

In the case of `O=C1OCCO1` [EC, ethylene carbonate], the “Surface Tension” value was 44.0* dynes/cm in [1] (25° C. (* = supercooled)) and 42.2 dynes/cm in [1] (40° C.). Moreover, the “Dipole Moment” value in [2] is given as 4.80 Debyes.
Regarding `CC1COC(=O)O1` (stereo not drawn) [PC, propylene carbonate], in data set [1] (25° C. (* = supercooled)), the “Surface Tension” value turned out to be 40.9 dynes/cm. The “Surface Tension” value in data set [1] (40° C.) worked out at 39.6 dynes/cm. The “adverse effects on activated sludge bacteria” value in data set [3] is given as “did not show adverse effects”. Further, in [4], the “Hansen Sol Par, dispersive” value is 9.8 cal^1/2 cm^−3/2; the “Hansen Sol Par, hydrogen bonding” value is 2.0 cal^1/2 cm^−3/2; the “Hansen Sol Par, polar” value was determined as 8.8 cal^1/2 cm^−3/2; the “Hansen Sol Par, total” value is given as 13.3 cal^1/2 cm ^−3/2. The LD50 in data set [5] was more than 20 mL/kg. In addition, in data set [6], the biodegradability entry was “very readily biodegradable”. Also, the toxicity towards mammals entry in [7] is recorded as “relatively low toxicity”. Besides, the genotoxicity entry in [8] is “negative”. Moreover, the skin irritation result in data set [9] is reported as “moderate skin irritation”. Also, in data set [2], the “Dipole Moment” value is 4.98 Debyes. Besides, the toxicity by inhalation entry in data set [10] was “non-toxic”. Besides, in data set [11], the toxicity by inhalation entry is listed as “non-toxic”.
Consider `O=C(O)CNCP(=O)(O)O` [glyphosate, N-phosphonomethylglycine, reference compound], for which, in data set [12] (FIG. 1, glyphosate IPA salt 0.25 lb ae/acre, adjuvant 0.1 v/v%, no AMS), the “velvetleaf control (necrosis), overall” value is “very little observed necrosis”. Further, the water solubility entry in data set [13] is reported as “low water solubility”. In addition, the “lambsquarters control (necrosis/kill), overall” value in data set [14] (FIG. 3, glyphosate 0.25 lb ae/acre, adjuvant 0.1 v/v%, no AMS) is given as “very little observed necrosis”.
In the case of `CCC1COC(=O)O1` (stereo not drawn) [BC, 1,2-butylene carbonate], the “Surface Tension” value in data set [1] (25° C. (* = supercooled)) worked out at 38.1 dynes/cm. In addition, the “Surface Tension” value in [1] (40° C.) was found to be 37.0 dynes/cm. In data set [4], the “Hansen Sol Par, dispersive” value is 8.3 cal^1/2 cm^−3/2; the “Hansen Sol Par, hydrogen bonding” value is 4.8 cal^1/2 cm^−3/2; the “Hansen Sol Par, polar” value amounted to 3.0 cal^1/2 cm^−3/2; the “Hansen Sol Par, total” value is recorded as 10.0 cal^1/2 cm ^−3/2. For the same compound, the toxicity towards mammals result in data set [7] is “relatively low toxicity”. The “Dipole Moment” value in data set [2] is given as 5.28 Debyes.
As for `N.N.O=S(=O)(O)O` [AMS, ammonium sulfate], in [12] (FIG. 2, glyphosate with AMS 17 lb/100 gallons), the “velvetleaf necrosis, overall” value is reported as “dramatically increases velvetleaf necrosis”. Besides, the “lambsquarters control, overall efficacy” value in [14] (FIG. 4, glyphosate with AMS 17 lb/100 gallons) is recorded as “does not produce the dramatic improved efficacy”.
For `CNC(=O)CSP(=S)(OC)OC` [Cygon, dimethoate], the “time to lose 50 percent of pest control power” value is 48 min in [15] (mixed in water of pH 9) and 720 min in data set [15] (pH of 6).
